Molecular target: T1, Mth α-subunit (NrdE) of Class Ib ribonucleotide reductase (Mycolicibacterium thermoresistibile, UniProt G7CEK2)
T1 sequence (G7CEK2 1-693): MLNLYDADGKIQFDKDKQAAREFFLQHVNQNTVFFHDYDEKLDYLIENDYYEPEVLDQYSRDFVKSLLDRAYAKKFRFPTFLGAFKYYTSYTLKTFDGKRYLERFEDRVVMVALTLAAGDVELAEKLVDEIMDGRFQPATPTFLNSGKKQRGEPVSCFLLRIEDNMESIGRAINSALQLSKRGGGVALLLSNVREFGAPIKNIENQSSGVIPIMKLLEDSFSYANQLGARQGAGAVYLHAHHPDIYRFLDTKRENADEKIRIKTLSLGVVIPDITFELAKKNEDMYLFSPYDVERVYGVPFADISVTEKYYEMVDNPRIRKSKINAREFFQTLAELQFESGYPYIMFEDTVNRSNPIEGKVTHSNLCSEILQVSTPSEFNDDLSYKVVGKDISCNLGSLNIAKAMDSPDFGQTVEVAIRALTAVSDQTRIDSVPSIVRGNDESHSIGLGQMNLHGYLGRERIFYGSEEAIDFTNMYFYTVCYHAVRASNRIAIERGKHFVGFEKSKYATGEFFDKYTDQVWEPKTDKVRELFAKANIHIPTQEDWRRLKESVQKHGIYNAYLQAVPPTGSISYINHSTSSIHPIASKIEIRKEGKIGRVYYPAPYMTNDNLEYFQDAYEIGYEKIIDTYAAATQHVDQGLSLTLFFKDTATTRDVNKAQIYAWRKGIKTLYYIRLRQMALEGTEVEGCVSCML
Assay: isothermal titration calorimetry
Format: binding

How did the Kd turn out when `Nc1ccn([C@H]2C[C@H](O)[C@@H](COP(=O)(O)OP(=O)(O)OP(=O)(O)O)O2)c(=O)n1` [dCTP] was run?
Its Kd is 6.6 µM.

`Nc1ncnc2c1ncn2[C@H]1C[C@H](O)[C@@H](COP(=O)(O)OP(=O)(O)OP(=O)(O)O)O1` [dATP] was tested. Which Kd did it give?
Its Kd is 1.1 µM.

How did the Kd turn out when `Nc1nc2c(ncn2[C@H]2C[C@H](O)[C@@H](COP(=O)(O)OP(=O)(O)OP(=O)(O)O)O2)c(=O)[nH]1` [dGTP] was run?
Its Kd is 4.6 µM.

How did the Kd turn out when `Cc1cn([C@H]2C[C@H](O)[C@@H](COP(=O)(O)OP(=O)(O)OP(=O)(O)O)O2)c(=O)[nH]c1=O` [dTTP] was run?
The Kd was 3.3 µM.

Which Kd does the source give for `Cc1cn([C@@H]2O[C@H](COP(=O)(O)OP(=O)(O)OP(=O)(O)O)[C@@H](O)[C@H]2O)c(=O)[nH]c1=O` [TTP] here?
Its Kd is 0.64 µM.

— doi:10.64898/2025.12.21.695763v2 (biorxiv, 2026)
